Results: patent US20240245711A1, “A 19-NOR C3,3-DISUBSTITUTED C21-N-PYRAZOLYL STEROID FOR THE TREATMENT OF MAJOR DEPRESSIVE DISORDER” (Sage Therapeutics, Inc., priority 2021, published 2024)
Entries after “also recorded” stand apart in the source; their conditions may differ.

Tested on: adult subjects with Major Depressive Disorder
Test: Phase 3 open-label 1-year study: safety and tolerability (TEAEs, SAEs, C-SSRS)
Format: in vivo, human
Method: Primary Objective: To determine the safety and tolerability of initial treatment and re-treatment(s) with Compound (1) in adults with Major Depressive Disorder (MDD) currently experiencing a major depressive episode (MDE) over a 1-year period.
Study Population: Subjects were 18-75 years old, diagnosed with major depressive disorder (MDD) with a MADRS total score of ≥28 and a HAM-D total score of ≥20 at Screening and Day 1 (prior to dosing).
Treatment Groups: The 30 mg and 50 mg dose groups were separated by time of enrollment. The study is comprised of two cohorts: one with Compound (1) 30 mg as a starting dose (30 mg Cohort: n=725), an initial cohort with Compound (1) 50 mg as a starting dose (50 mg Cohort: n=199). A patient receiving Compound (1) 30 mg could be dose reduced to 20 mg and patients receiving Compound (1) 50 mg could be dose reduced to 40 mg (based on tolerability). In all cohorts, Compound (1) is self-administered by patients as an oral therapy once nightly with food for 14 days.
The study has a Screening Period of up to 28 days, a 14-day Treatment Period, and up to 1 year of Follow-up. FIG. 1 is an overview of the study.
Antidepressants were permitted provided subjects were on a stable dose for at least 60 days prior to Day 1 and agreed to continue on the stable dose through the follow-up period (Day 42). Initiation of new antidepressants or any other medications that may potentially have an impact on efficacy or safety endpoints were not allowed between screening and completion of the Day 42 assessments.
Eligible subjects were given Compound (1)—to be taken at home in the evening with meal.
Subjects who continued in the Observation Period were monitored remotely via PHQ-9 assessment every two weeks. If PHQ-9 score was >=10 at any assessment, PHQ-9 assessment was switch to every week until the score came down below 10 or the subject was dosed with Compound (1) in a subsequent cycle, whichever was earlier. A subject was to come back to the site for HAM-D assessment within a week of PHQ-9 score >=10; if the HAM-D total score >=20 and at least 56 days had elapsed since the last dose of Compound (1), another dosing cycle of Compound (1) were to start. If any of these criteria were not met, the subject couldn't be treated with Compound (1) at that time. Without the trigger of PHQ-9>=10 the subject was to have a clinic visit every 8 weeks. A subject could have at most 5 cycles of treatment within a year. FIG. 2 is a depiction of the eligibility criteria of the study.
Dose reduction from 30 mg to 20 mg or 50 mg to 40 mg was allowed in any treatment cycle if the safety and/or tolerability of the subject so warrants. […] Subjects who dose reduced from 30 mg to 20 mg still started with 30 mg in the next treatment cycle.
The cohorts pertaining to the different doses that the subjects received were defined as following: • 50 mg cohort: This cohort includes subjects who have initiated treatment with 50 mg and received re-treatment with 50 mg only. • 30 mg cohort: This cohort includes subjects who have initiated treatment with 30 mg regardless of the dose they have received in re-treatments. • Low dose cohort: This cohort includes subjects who have initiated treatment with 30 mg and received re-treatment with 30 mg only. • Dose switch cohort: This cohort includes subjects who have received initial treatment with 30 mg and at least one subsequent re-treatment with 50 mg. • Study Period X: starts on the date of the first dose of Compound (1) in cycle X and goes up to one day prior to the first dose of the next cycle. […]

[1] = 50 mg Cohort, one-year follow-up (Example 4)
[2] = Low Dose Cohort, ATD use at period-specific baseline No, Study Period 1
[3] = Low Dose Cohort, ATD use at period-specific baseline No, Study Period 2

Structure (SMILES): C[C@@]1(O)CC[C@H]2[C@H](CC[C@@H]3[C@@H]2CC[C@]2(C)[C@@H](C(=O)Cn4cc(C#N)cn4)CC[C@@H]32)C1 [Compound (1), 1-(2-((3R,5R,8R,9R,10S,13S,14S,17S)-3-hydroxy-3,13-dimethylhexadecahydro-1H-cyclopenta[a]phenanthren-17-yl)-2-oxoethyl)-1H-pyrazole-4-carbonitrile]
- Subjects with at least one TEAE leading to study drug discontinuation (30 mg Cohort (N = 725)): 19 (2.6%)
- Subjects with at least one TEAE leading to study withdrawal (30 mg Cohort (N = 725)): 32 (4.4%)
- Subjects with at least one serious TEAE (30 mg Cohort (N = 725)): 20 (2.8%)
- TEAE severity Mild, subjects n (%) (30 mg Cohort (N = 725)): 200 (27.6%)
- TEAE severity Moderate, subjects n (%) (30 mg Cohort (N = 725)): 248 (34.2%)
- TEAE severity Severe / subjects with at least one severe TEAE, n (%) (30 mg Cohort (N = 725)): 45 (6.2%)
- Events of loss of consciousness (30 mg and 50 mg, as of the cutoff date): No events of loss of consciousness
- Possibly or probably related SAEs (50 mg Cohort): Confusional state; also recorded: Asthenia; also recorded: Delirium
- Subjects with at least one serious TEAE (50 mg Cohort (N = 199)): 7 (3.5%)
- TEAE Arthralgia, subjects n (%) (50 mg Cohort (N = 199)): 1 (0.5%)
- TEAE Back Pain, subjects n (%) (50 mg Cohort (N = 199)): 0%
- TEAE Diarrhea, subjects n (%) (50 mg Cohort (N = 199)): 4 (2.0%)
- TEAE Dizziness, subjects n (%) (50 mg Cohort (N = 199)): 30 (15.1%)
- TEAE Dry Mouth, subjects n (%) (50 mg Cohort (N = 199)): 7 (3.5%)
- TEAE Fatigue, subjects n (%) (50 mg Cohort (N = 199)): 5 (2.5%)
- TEAE Headache, subjects n (%) (50 mg Cohort (N = 199)): 20 (10.1%)
- TEAE Insomnia, subjects n (%) (50 mg Cohort (N = 199)): 10 (5.0%)
- TEAE Nausea, subjects n (%) (50 mg Cohort (N = 199)): 11 (5.5%)
- TEAE Sedation, subjects n (%) (50 mg Cohort (N = 199)): 18 (9.0%)
- TEAE Somnolence, subjects n (%) (50 mg Cohort (N = 199)): 29 (14.6%)
- TEAE Upper Respiratory Tract Infection, subjects n (%) (50 mg Cohort (N = 199)): 1 (0.5%)
- TEAE severity Mild, subjects n (%) (50 mg Cohort (N = 199)): 45 (22.6%)
- TEAE severity Moderate, subjects n (%) (50 mg Cohort (N = 199)): 65 (32.7%)
- TEAE severity Severe / subjects with at least one severe TEAE, n (%) (50 mg Cohort (N = 199)): 15 (7.5%)
- Withdrawn in Treatment Cycle 1: Adverse event, n (%) (50 mg Cohort (n = 199)): 11 (5.5%)
- Maximum severity of TEAEs reported by the majority of subjects [1]: mild to moderate
- TEAE Dizziness, subjects n (%) [1]: 15.1%
- TEAE Headache, subjects n (%) [1]: 12.7%
- TEAE Insomnia, subjects n (%) [1]: 7.0%
- TEAE Nausea, subjects n (%) [1]: 6.5%
- TEAE Sedation, subjects n (%) [1]: 10.1%
- TEAE Somnolence, subjects n (%) [1]: 16.1%
- TEAE tremor, subjects (n; %) [1]: 5.5%
- Subjects reporting TEAEs leading to discontinuation of study drug (50 mg Cohort, one-year follow-up (Example 4), 13/199): 6.5%
- Subjects reporting TEAEs leading to withdrawal from study (50 mg Cohort, one-year follow-up (Example 4), 16/199): 8.0%
- Subjects reporting at least one adverse event (50 mg Cohort, one-year follow-up (Example 4), 137 of 199): 68.8%
- Subjects reporting TEAEs leading to dose reduction, n/N (50 mg cohort, Cycle 2): 2/26
- Proportion of subjects reporting TEAEs (50 mg cohort, as printed in b423 (46/76)): 60.5%
- Subjects reporting TEAEs leading to dose reduction (50 mg cohort, overall (34/199)): 17.1%
- Tolerability (Compound (1) 50 mg, 50 mg Cohort followed up to one year (Example 4)): generally well-tolerated
- Subjects with at least one serious TEAE (Dose Switch Cohort (N = 80)): 1 (1.3%)
- TEAE Arthralgia, subjects n (%) (Dose Switch Cohort (N = 80)): 5 (6.3%)
- TEAE Back Pain, subjects n (%) (Dose Switch Cohort (N = 80)): 5 (6.3%)
- TEAE Diarrhea, subjects n (%) (Dose Switch Cohort (N = 80)): 11 (13.8%)
- TEAE Dizziness, subjects n (%) (Dose Switch Cohort (N = 80)): 7 (8.8%)
- TEAE Dry Mouth, subjects n (%) (Dose Switch Cohort (N = 80)): 3 (3.8%)
- TEAE Fatigue, subjects n (%) (Dose Switch Cohort (N = 80)): 8 (10.0%)
- TEAE Headache, subjects n (%) (Dose Switch Cohort (N = 80)): 13 (16.3%)
- TEAE Insomnia, subjects n (%) (Dose Switch Cohort (N = 80)): 5 (6.3%)
- TEAE Nausea, subjects n (%) (Dose Switch Cohort (N = 80)): 3 (3.8%)
- TEAE Sedation, subjects n (%) (Dose Switch Cohort (N = 80)): 11 (13.8%)
- TEAE Somnolence, subjects n (%) (Dose Switch Cohort (N = 80)): 10 (12.5%)
- TEAE Upper Respiratory Tract Infection, subjects n (%) (Dose Switch Cohort (N = 80)): 5 (6.3%)
- TEAE severity Mild, subjects n (%) (Dose Switch Cohort (N = 80)): 13 (16.3%)
- TEAE severity Moderate, subjects n (%) (Dose Switch Cohort (N = 80)): 36 (45.0%)
- TEAE severity Severe / subjects with at least one severe TEAE, n (%) (Dose Switch Cohort (N = 80)): 8 (10.0%)
- Proportion of subjects reporting TEAEs (Dose Switch cohort, as printed in b423 (37/48)): 77.1%
- Subjects reporting TEAEs leading to dose reduction (Dose switch cohort, Cycle 1 while on 30 mg): 2.5%
- Subjects reporting TEAEs leading to dose reduction (Dose switch cohort, Cycle 2 while on 30 mg): 2.5%
- Subjects reporting TEAEs leading to dose reduction (Dose switch cohort, Cycle 3 while switched to 50 mg): 4.2%
- Subjects reporting TEAEs leading to dose reduction (Dose switch cohort, Cycle 4 while switched to 50 mg): 3.8%
- Subjects reporting TEAEs leading to dose reduction (Dose switch cohort, Cycle 5 while switched to 50 mg): 17.4%
- Subjects reporting TEAEs leading to dose reduction (Dose switch cohort, overall (12/80)): 15.0%
- Possibly or probably related SAEs (Low Dose Cohort): Suicidal ideation
- Subjects with at least one serious TEAE (Low Dose Cohort (N = 645)): 19 (2.9%)
- TEAE Arthralgia, subjects n (%) (Low Dose Cohort (N = 645)): 14 (2.2%)
- TEAE Back Pain, subjects n (%) (Low Dose Cohort (N = 645)): 18 (2.8%)
- TEAE Diarrhea, subjects n (%) (Low Dose Cohort (N = 645)): 43 (6.7%)
- TEAE Dizziness, subjects n (%) (Low Dose Cohort (N = 645)): 47 (7.3%)
- TEAE Dry Mouth, subjects n (%) (Low Dose Cohort (N = 645)): 40 (6.2%)
- TEAE Fatigue, subjects n (%) (Low Dose Cohort (N = 645)): 27 (4.2%)
- TEAE Headache, subjects n (%) (Low Dose Cohort (N = 645)): 90 (14.0%)
- TEAE Insomnia, subjects n (%) (Low Dose Cohort (N = 645)): 31 (4.8%)
- TEAE Nausea, subjects n (%) (Low Dose Cohort (N = 645)): 25 (3.9%)
- TEAE Sedation, subjects n (%) (Low Dose Cohort (N = 645)): 29 (4.5%)
- TEAE Somnolence, subjects n (%) (Low Dose Cohort (N = 645)): 76 (11.8%)
- TEAE Upper Respiratory Tract Infection, subjects n (%) (Low Dose Cohort (N = 645)): 52 (8.1%)
- TEAE severity Mild, subjects n (%) (Low Dose Cohort (N = 645)): 187 (29.0%)
- TEAE severity Moderate, subjects n (%) (Low Dose Cohort (N = 645)): 212 (32.9%)
- TEAE severity Severe / subjects with at least one severe TEAE, n (%) (Low Dose Cohort (N = 645)): 37 (5.7%)
- Withdrawn in Treatment Cycle 1: Adverse event, n (%) (Low Dose Cohort (n = 645)): 15 (2.3%)
- Subjects with a TEAE leading to study drug discontinuation [2]: (3.2%)
- Subjects with a Treatment cycle period AE leading to study withdrawal [2]: (3.7%)
- Subjects with at least one TEAE [2]: (67.5%)
- Subjects with at least one Treatment cycle period TEAE [2]: (53.6%)
- Subjects with at least one Treatment cycle period serious TEAE [2]: (1.3%)
- Subjects with at least one Treatment cycle period severe TEAE [2]: (2.6%)
- Subjects with at least one Treatment period AE [2]: (51.2%)
- Subjects with a TEAE leading to study drug discontinuation [3]: 1 (0.8%)
- Subjects with a Treatment cycle period AE leading to study withdrawal [3]: 3 (2.5%)
- Subjects with at least one TEAE [3]: 75 (63.6%)
- Subjects with at least one Treatment cycle period TEAE [3]: 58 (49.2%)
- Subjects with at least one Treatment cycle period serious TEAE [3]: 0%
- Subjects with at least one Treatment cycle period severe TEAE [3]: 2 (1.7%)
